Source: patent publication US4104397A, “Spiro (1,3-dioxolane-4,3') quinuclidine compounds” (The Purdue Frederick Company, priority 1975, dated 1978)
“And” between values parts separate entries of the source, which are not always exact repeats. Identical values can stand only once. Counter-ions that a name gives are not always drawn. Like-named read-outs stand apart in the source and are kept apart here.

How the values were obtained:
[1] = Biological activity of the cis-isomer; conditions: in words, cis/trans comparison
mice [2] = conditions: Chiang & Leaders, 1971; cited from earlier work
mice [3] = test: Salivation (sialigenic activity) in mice, Table 2; format: in vivo; conditions: Mus musculus, ip, read-out: Salivation ED50 (ip)
Description: (§1) Acute Toxicity, tremorigenic and sialigenic
(§2) *with 95% confidence limits, Litchfield & Wilcoxon, (1949).
**Chiang & Leaders, 1971

blood pressure = test: Fall in blood pressure in vivo, Table 1; design: species or system cat; conditions: iv; for ED50: Felis catus, read-out: Fall blood pressure ED50 (iv); for Fall blood pressure EPMR: equipotent molar ratio relative to ACh
Description: (§3) cat mice cat Guinea pig ileum
(§4) *with 95% confidence limits (Litchfield et al, 1949)
(§5) **EPMR: equipotent molar ratio relative to ACh. nmole: nannomoles

mice [4] = test: Tremors (tremorigenic activity) in mice, Table 2; format: in vivo; conditions: Mus musculus, ip, read-out: Tremors ED50 (ip)
Description: as §1, §2

Guinea pig ileum = Guinea pig ileum induced contraction in vitro, Table 1; format: cell-based; conditions: equipotent molar ratio relative to ACh
Description: as §3
(iv) induced contraction
as §5

mice [5] = test: Induced tremors in mice, Table 1; format: in vivo; conditions: Mus musculus, ip, read-out: Induced tremors ED50 (ip)
Description: as §3, §4

[6] = Acute toxicity in mice, Table 2; conditions: mouse, in vivo
Description: as §2

SCG = SCG (cat), antagonism to McN-A-343 induced contraction of NM; format: in vivo
Description: |induced contraction of NM

[7] = system: Oxotromorine induced salivation; test: Antagonism to oxotremorine induced salivation; format: in vivo, Mice; conditions: Mus musculus, sc
Description: (§6) *With 95% confidence limits (Litchfield and Wilcoxon, 1949).
**Oxotromorine, 170 μg/kg, ip (1.15 ED50) induced salivation.
(§7) ^+ R1 =R2 =.PHI.,HCl is injected 20 min. prior to […]

[8] = system: Oxotromorine induced tremors; test: Antagonism to oxotremorine induced tremors; format: in vivo, Mice; conditions: Mus musculus, sc
Description: as §6, §7

[9] = system: enzyme which desactivates acetylcholine; test: Stability to the enzyme which desactivates acetylcholine; format: in vitro ADME; conditions: in words
[10] = system: autonomic ganglionic and central muscarinic receptors; test: Cholinergic stimulant activity and specificity; conditions: in words
Anticholinergic activity = conditions: in words
Guinea-pig ileum = target: T1, Guinea-pig ileum (Cavia porcellus, UniProt H0W1Z3); test: Antagonism in guinea-pig ileum (log Ki), Table 3; format: cell-based; conditions: printed as log Ki (negative)
T1 construct: Guinea-pig ileum, log Ki; from tissue; host or cells: guinea-pig ileum

[11] = system: Physostigmine induced lethality; test: Antagonism to physostigmine induced lethality; format: in vivo, Mice; conditions: Mus musculus, sc
Description: as §6

LD50 in mice, Table 3 = conditions: mouse, in vivo, sc
[12] = system: Oxotromorine induced tremors and salivation; test: CNS/PNS activity (ED50 blockade of tremors / ED50 blockade of salivation); format: in vivo, Mice; conditions: ED50 for blockade of tremors divided by ED50 for blockade of salivation; 95% confidence limits
Description: as §6

mydriatic activity = test: Relative mydriatic activity, Table 3; format: in vivo; conditions: atropine sulphate = 1

T1 sequence (H0W1Z3 1-590): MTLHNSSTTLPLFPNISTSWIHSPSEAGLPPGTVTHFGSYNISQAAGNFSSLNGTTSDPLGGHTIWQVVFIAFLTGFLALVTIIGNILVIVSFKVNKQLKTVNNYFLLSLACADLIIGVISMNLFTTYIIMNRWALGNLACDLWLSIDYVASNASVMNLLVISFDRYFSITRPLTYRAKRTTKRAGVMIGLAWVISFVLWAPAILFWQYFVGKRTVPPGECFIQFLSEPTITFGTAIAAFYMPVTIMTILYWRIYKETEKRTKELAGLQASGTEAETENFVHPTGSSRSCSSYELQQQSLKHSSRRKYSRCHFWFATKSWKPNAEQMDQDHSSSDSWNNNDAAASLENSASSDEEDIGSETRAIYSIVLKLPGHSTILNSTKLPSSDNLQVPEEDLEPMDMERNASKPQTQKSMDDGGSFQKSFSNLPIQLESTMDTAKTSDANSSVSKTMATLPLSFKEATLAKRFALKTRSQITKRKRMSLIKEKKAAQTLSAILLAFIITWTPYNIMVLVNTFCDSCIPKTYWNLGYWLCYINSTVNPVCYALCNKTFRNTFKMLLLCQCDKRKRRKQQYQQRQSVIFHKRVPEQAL

CC1OCC2(CN3CCC2CC3)O1 (single isomer, unassigned; isomer 2) [cis-isomer, 2-methyl spiro (1,3-dioxolane-4,3') quinuclidine]
biological activity of the cis-isomer [1]: greater biological activity

CC(=O)OC1CN2CCC1CC2 (stereo not drawn) [3-Acetoxyquinuclidine]
Salivation ED50 (ip) (mice [2]): 2.9 mg/kg
ED50 (mice [3]): 1.8 mg/kg and 8.8 µmol/kg
ED50 (blood pressure): 0.0002 mg/kg and 0.001 µmol/kg
Fall blood pressure EPMR (blood pressure; cat): 6.25
ED50 (mice [4]): 7.5 mg/kg and 36.5 µmol/kg
Guinea pig ileum induced contraction EPMR (Guinea pig ileum): 14
ED50 (mice [5]): 7.5 mg/kg and 36.5 µmol/kg
LD50 ([6]; sc): 112 mg/kg

CC(=O)OC(C)C[N+](C)(C)C (stereo not drawn) [Acetyl-β-methyl choline]
Guinea pig ileum induced contraction EPMR (Guinea pig ileum): 3.6

CC(=O)OCC[N+](C)(C)C [Acetylcholine]
ED50 (blood pressure; cat): 0.00016 µmol/kg

CN1[C@@H]2CC[C@H]1CC(OC(=O)C(CO)c1ccccc1)C2 (stereo partly drawn) [Atropine Sulphate, reference compound]
antagonism to McN-A-343 induced contraction of NM ED50 (ia) (SCG): 1.4 µmol
ED50 [7]: 0.039 µmol/kg
ED50 [8]: 1 µmol/kg

CC1OCC2(CN3CCC2CC3)O1 (stereo not drawn) [Example 1, 2-Methyl spiro (1,3-dioxolane-4,3')Quinuclidine]
destruction by the enzyme which desactivates acetylcholine [9]: not destroyed by the enzyme which desactivates acetylcholine
cholinergic stimulant activity [10]: specific and powerful cholinergic stimulant
specificity towards autonomic ganglionic and central muscarinic receptors [10]: high degree of specificity

c1ccc(C2(c3ccccc3)OCC3(CN4CCC3CC4)O2)cc1 (stereo not drawn) [Example 3, 2,2-diphenyl spiro (1,3-dioxolane-4,3')quinuclidine]
anticholinergic activity (Anticholinergic activity): powerful anticholinergic agent

CC1OCC2(CN3CCC2CC3)O1 (stereo not drawn) [I,R1 =H,R2 =-CH3.HCl, 2-methyl spiro (1,3-dioxolane-4,3') quinuclidine]
ED50 (mice [3]; mice): 3 mg/kg and 13.7 µmol/kg
ED50 (blood pressure; cat): 0.0066 mg/kg and 0.0301 µmol/kg
Fall blood pressure EPMR (blood pressure; cat): 188
ED50 (mice [4]; mice): 4.5 mg/kg and 20.5 µmol/kg
Guinea pig ileum induced contraction EPMR (Guinea pig ileum): 240
ED50 (mice [5]; mice): 4.5 mg/kg and 20.5 µmol/kg
LD50 ([6]; sc): 220 mg/kg

c1ccc(C2(c3ccccc3)OCC3(CN4CCC3CC4)O2)cc1 (stereo not drawn) [I,R1 =R2 =phenyl,HCl, 2,2-diphenyl spiro (1,3-dioxolane-4,3')quinuclidine]
antagonism to McN-A-343 induced contraction of NM ED50 (ia) (SCG): 0.5 µmol
ED50 [7]: 0.28 µmol/kg
ED50 [8]: 0.31 µmol/kg
Ki (Guinea-pig ileum): 0.251 nM
ED50 [11]: 0.2 µmol/kg
LD50 (LD50 in mice, Table 3): 40 mg/kg
CNS/PNS activity [12]: 1.1(0.77-1.56)
Relative mydriatic activity (mydriatic activity): 1.5

O=C1CCCN1CC#CCN1CCCC1 [Oxotremorine]
ED50 (mice [3]; mice): 0.12 mg/kg and 0.63 µmol/kg
ED50 (mice [4]; mice): 0.14 mg/kg and 0.73 µmol/kg
LD50 ([6]; ip): 5 mg/kg
